Laboratory results: patent publication US20230159469A1, “NOVEL PHTHALAZINE DERIVATIVE HAVING ECTONUCLOEOTIDE PYROPHOSPHATASE/PHOSPHODIESTE RASE INHIBITORY ACTIVITY, AND USE THEREOF” (TXINNO BIOSCIENCE INC., priority 2020, published 2023)
Counter-ions that a name gives are not always drawn.

Target: T1, human recombinant ENPP1 (Homo sapiens, UniProt P22413)
T1 construct: purchased R & D systems
T1 sequence (P22413 1-925): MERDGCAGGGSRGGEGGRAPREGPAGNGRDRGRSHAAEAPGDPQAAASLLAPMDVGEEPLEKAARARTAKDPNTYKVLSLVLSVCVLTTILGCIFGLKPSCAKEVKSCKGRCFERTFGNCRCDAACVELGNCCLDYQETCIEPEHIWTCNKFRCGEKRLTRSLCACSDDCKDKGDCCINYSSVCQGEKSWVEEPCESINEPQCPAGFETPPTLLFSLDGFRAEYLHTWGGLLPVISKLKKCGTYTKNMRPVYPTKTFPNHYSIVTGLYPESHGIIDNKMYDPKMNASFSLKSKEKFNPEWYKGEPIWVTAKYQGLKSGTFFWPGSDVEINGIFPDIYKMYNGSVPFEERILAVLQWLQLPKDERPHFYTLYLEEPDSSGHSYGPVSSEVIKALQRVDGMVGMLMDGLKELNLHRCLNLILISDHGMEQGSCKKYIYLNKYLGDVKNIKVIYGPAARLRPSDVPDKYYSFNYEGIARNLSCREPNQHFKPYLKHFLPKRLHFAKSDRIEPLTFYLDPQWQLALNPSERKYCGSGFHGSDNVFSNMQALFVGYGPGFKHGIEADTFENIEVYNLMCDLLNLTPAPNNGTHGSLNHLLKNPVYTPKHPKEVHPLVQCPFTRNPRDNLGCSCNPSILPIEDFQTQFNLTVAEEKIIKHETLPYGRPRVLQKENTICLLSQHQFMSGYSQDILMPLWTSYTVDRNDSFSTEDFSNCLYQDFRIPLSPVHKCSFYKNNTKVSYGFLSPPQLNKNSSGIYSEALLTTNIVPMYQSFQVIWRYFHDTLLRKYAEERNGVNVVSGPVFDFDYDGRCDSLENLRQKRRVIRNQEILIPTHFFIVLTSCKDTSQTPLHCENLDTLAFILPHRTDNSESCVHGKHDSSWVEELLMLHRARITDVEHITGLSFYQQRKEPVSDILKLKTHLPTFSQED
Test: ENPP1 enzyme assay with cGAMP substrate (AMP-Glo luminescence)
Format: biochemical
Conditions: human recombinant ENPP1 3 ng/reaction, cGAMP 5 μM, 37° C. 90 minutes, read-out: Enzymatic activity (ENPP1 IC50)
Experimental: ENPP1 hydrolyzes nucleotides or nucleotide derivatives to produce nucleoside -5′-monophosphate and pyrophosphate. in addition, ENPP1 hydrolyzes 2′,3′-cGAMP to produce 5′-adenosine monophosphate (AMP) and 5′-guanosine monophosphate (GMP). AMP produced from the reaction is measured using the AMP-Glo® kit (Promega). The AMP-Glo® kit contains two reagents. The first reagent terminates the AMP-producing enzymatic reaction, removes ATP and converts the produced AMP into ADP. The second reagent converts ADP to ATP which is used to generate luminescence in the luciferase reaction. The amount of luminescence measured is proportional to the amount of AMP produced by ENPP1.
The final reaction mixture contains 50 mM Tris (pH 8.5) buffer, 250 mM NaCl, 0.5 mM. CaCl2, 1 μM ZnCl2, 5% glycerol and 1% DMSO. […] The reaction was initiated by addition of cGAMP (at a final concentration of 5 μM) and reacted at 37° C. for 90 minutes. At the end of the reaction, 10 μl of the AMP-Glo first reagent was added to stop the reaction and the result was stored at room temperature for […]. After storage, 20 μl of an AMP detection solution (a mixture of AMP-Glo II reagent and Kinase-Gio at a ratio of 1:100) was added and stored at room. temperature for 1 hour. Luminescence signals were measured using a Victor® plate reader (Perkin Elmer). The maximal activity control (containing enzymes and substrates only in the presence of 1% DMSO; MAX) and the minimal activity control (containing substrates and 1% DMSO; MIN) were evaluated simultaneously. In each experiment, serially diluted reference ENPP1 inhibitors were tested together. IC50, indicating % residual activity versus compound concentration was determined by fitting inhibition curves using the 3-parameter analysis of GraphPad Prism® software. Serially diluted samples of one compound were tested two or more times and an average IC50 of each compound was calculated.

| IC50 | Structure (SMILES) |
| --- | --- |
| > 10 µM | CC(C)(C)OC(=O)NS(=O)(=O)NCc1ccc(-c2nn(-c3ccccc3)c(=O)c3ccccc23)cc1 [Compound No. 69, tert-butyl (N-(4-(4-oxo-3-phenyl-3,4-dihydrophthalazin-1-yl)benzyl)sulfamoyl)carbamate] |
| > 10 µM | Nc1cccc(-c2n[nH]c(=O)c3ccccc23)c1 [Compound No. 30, 4-(3-aminophenyl)phthalazin-1(2H)-one hydrochloride] |
| > 10 µM | CC(C)(C)OC(=O)NCc1ccc(-c2nn(Cc3ccc(F)cc3)c(=O)c3ccccc23)cc1 [Compound No. 14, tert-butyl (4-(3-(4-fluorobenzyl)-4-oxo-3,4-dihydrophthalazin-1-yl)benzyl)carbamate] |
| < 1 µM | Cn1nc(-c2ccc(CN)cc2)c2ccccc2c1=O [Compound No. 37, 4-(4-aminomethyl)phenyl)-2-methylphthalazin-1(2H)-one hydrochloride] |
| < 1 µM | NS(=O)(=O)Nc1cccc(-c2nn(Cc3ccccc3)c(=O)c3ccccc23)c1 [Compound No. 89, N-(3-(3-benzyl-4-oxo-3,4-dihydrophthalazin-1-yl)phenyl)sulfamide hydrochloride] |
| > 10 µM | Cn1nc(-c2cccc(CNC(=O)OC(C)(C)C)c2)c2ccccc2c1=O [Compound No. 6, tert-butyl 3-(3-methyl-4-oxo-3,4-dihydrophthalazin-1-yl) benzyl carbamate] |
| 1 to 10 µM | O=c1[nH]nc(-c2ccccc2)c2ccccc12 [Compound No. 1, 4-phenylphthalazin-1(2H)-one] |
| > 10 µM | NCc1cccc(-c2n[nH]c(=O)c3ccccc23)c1 [Compound No. 33, 4-(3-(aminomethyl)phenyl)phthalazin-1(2H)-one hydrochloride] |
| 1 to 10 µM | Cn1nc(-c2ccc(CCS(N)(=O)=O)cc2)c2ccccc2c1=O [Example 202, 2-(4-(3-methyl-4-oxo-3,4-dihydrophthalazin-1-yl)phenyl)ethane-1-sulfonamide] |
| < 1 µM | Cn1nc(-c2cccc(CNS(N)(=O)=O)c2)c2ccccc2c1=O [Compound No. 94, N-(3-(3-methyl-4-oxo-3,4-dihydrophthalazin-1-yl)benzyl)sulfamide trifluoroacetic acid] |
| > 10 µM | O=c1[nH]nc(-c2ccc(CNS(=O)(=O)C3CC3)cc2)c2ccccc12 [Example 196, N -(4-(4-oxo-3,4-dihydrophthalazin-1-yl)benzyl)cyclopropanesulfonamide] |
| 1 to 10 µM | NCc1ccc(-c2nn(Cc3ccccc3)c(=O)c3ccccc23)cc1 [Compound No. 41, 4-(4-aminomethyl)phenyl)-2-benzylphthalazin-1(2H)-one hydrochloride] |

Further lines, the compound ahead of its results:

| Structure (SMILES) | IC50 |
| --- | --- |
| COc1cc2c(Cc3cccc(NS(N)(=O)=O)c3)n[nH]c(=O)c2cc1OC [Example 178, (N-(3-((6,7-dimethoxy-4-oxo-3,4-dihydrophthalazin-1-yl)methyl)phenyl)sulfamide hydrochloride] | > 10 µM |
| COc1cc2c(Cc3ccc4c(c3)CCN4)n[nH]c(=O)c2cc1OC [Example 165, 4-(indolin-5-yl-methyl)-6,7-dimethoxyphthalazin-1(2H)-one hydrochloride] | > 10 µM |
| CC(C)(N)c1ccc(-c2n[nH]c(=O)c3ccccc23)cc1 [Compound No. 52, 4-(4-(2-aminopropan-2-yl)phenyl)phthalazin-1(2H)-one hydrochloride] | 1 to 10 µM |
| CC(C)(C)OC(=O)NCC1CCN(c2n[nH]c(=O)c3ccccc23)CC1 [Compound No. 132, tert-butyl ((1-(4-oxo-3,4-dihydrophthalazin-1-yl)piperidin-4-yl)methyl)carbamate] | > 10 µM |
| COc1cc2c(-c3ccc(CNC(=O)OC(C)(C)C)cc3)nn(C)c(=O)c2cc1OC [Compound No. 20, tert-butyl (4-(6,7-dimethoxy-3-methyl-4-oxo-3,4-dihydrophthalazin-1-yl)benzyl)carbamate] | > 10 µM |
| COc1ccc2c(=O)[nH]nc(-c3ccc(CNS(N)(=O)=O)cc3)c2c1 [Compound No. 103, N-(4-(7-methoxy-4-oxo-3,4-dihydrophthalazin-1-yl)benzyl)sulfamide hydrochloride] | < 1 µM |
| COc1cc2c(-c3ccc4c(c3)CNCC4)n[nH]c(=O)c2cc1OC [Compound No. 59, 6,7-dimethoxy-4-(1,2,3,4-tetrahydroisoquinolin-7-yl) phthalazin-1(2H)-one] | > 10 µM |
| COc1cc2c(Nc3cccc(NS(N)(=O)=O)c3)nn(C)c(=O)c2cc1OC [Compound No. 141, N-(3-(6,7-dimethoxy-3-methyl-4-oxo-3,4-dihydrophthalazin-1-yl)-amino)phenyl)sulfamide hydrochloride] | 1 to 10 µM |
| COc1cc2c(Cc3ccccc3)n[nH]c(=O)c2cc1OC [Compound No. 144, 4-benzyl-6,7-dimethoxyphthalazin-1(2H)-one] | > 10 µM |
| COc1cc2c(N3CCC(CN)CC3)n[nH]c(=O)c2cc1OC [Compound No. 135, 4-(4-(aminomethyl)piperidin-1-yl)-6,7-dimethoxyphthalazin-1(2H)-one hydrochloride] | > 10 µM |
| COc1ccc2c(-c3ccc(CN)cc3)n[nH]c(=O)c2c1 [Compound No. 47, 4-(4-(aminomethyl)-phenyl)-7-methoxyphthalazin-1(2H)-one hydrochloride] | < 1 µM |
| COc1cc2c(Nc3ccc(NS(N)(=O)=O)cc3)nn(C)c(=O)c2cc1OC [Compound No. 140, N-(4-(6,7-dimethoxy-3-methyl-4-oxo-3,4-dihydrophthalazin-1-yl)-amino)phenyl)sulfamide hydrochloride] | > 10 µM |
| COc1cc2c(-c3ccc(CN(C)S(N)(=O)=O)c(F)c3F)n[nH]c(=O)c2cc1OC [Compound No. 117, N-(4-(6,7-dimethoxy-4-oxo-3,4-dihydrophthalazin-1-yl)-2,3-difluorobenzyl)-N-methyl sulfamide hydrochloride] | > 10 µM |
| CNc1ccc(Cc2nn(C)c(=O)c3cc(OC)c(OC)cc23)cc1 [Example 164, 6,7-dimethoxy-2-methyl-4-(4-(methylamino)benzyl)phthalazin-1(2H)-one hydrochloride] | > 10 µM |
| COc1cc2c(-c3ccc(CNS(=O)(=O)NC(=O)OC(C)(C)C)cc3)n[nH]c(=O)c2cc1OC [Compound No. 76, tert-butyl (N-(4-(6,7-dimethoxy-4-oxo-3,4-dihydrophthalazin-1-yl)benzyl)sulfamoyl)carbamate] | 1 to 10 µM |
| COc1cc2c(Cc3ccc4c(c3)CCN4S(=O)(=O)NC(=O)OC(C)(C)C)nn(C)c(=O)c2cc1OC [Example 177, tert-butyl (5-((6,7-dimethoxy-3-methyl-4-oxo-3,4-dihydrophthalazin-1-yl)methyl)indolin-1-yl)sulfonyl carbamate] | > 10 µM |
| COc1cc2c(Cc3ccc(NS(=O)(=O)NC(=O)OC(C)(C)C)cc3)n[nH]c(=O)c2cc1OC [Example 171, tert-butyl (N-(4-((6,7-dimethoxy-4-oxo-3,4-dihydrophthalazin-1-yl)methyl)phenyl)sulfamoyl)carbamate] | > 10 µM |
| Nc1ccc(Cc2n[nH]c(=O)c3ccccc23)cc1 [Example 158, 4-(4-aminobenzyl)-phthalazin-1(2H)-one hydrochloride] | > 10 µM |
| NS(=O)(=O)NCC1CCN(c2n[nH]c(=O)c3ccccc23)CC1 [Compound No. 138, N-((1-(4-oxo-3,4-dihydrophthalazin-1-yl)piperidin-4-yl)methyl)sulfamide hydrochloride] | < 1 µM |
